Measured values taken from patent publication US9862730B2, “Imidazothiadiazole derivatives as protease activated receptor 4 (PAR4) inhibitors for treating platelet aggregation” (BRISTOL-MYERS SQUIBB COMPANY, priority 2012, dated 2018).

How the values were obtained:
PAR4 [1] = biological target: T1, PAR4 (Homo sapiens (Human), UniProt Q96RI0); assay: FLIPR assay in PAR4-expressing HEK293 cells (PAR4 antagonist activity, calcium mobilization); format: cell-based; conditions: FLIPR assay as described in Example A
T1 sequence (Q96RI0 18-385): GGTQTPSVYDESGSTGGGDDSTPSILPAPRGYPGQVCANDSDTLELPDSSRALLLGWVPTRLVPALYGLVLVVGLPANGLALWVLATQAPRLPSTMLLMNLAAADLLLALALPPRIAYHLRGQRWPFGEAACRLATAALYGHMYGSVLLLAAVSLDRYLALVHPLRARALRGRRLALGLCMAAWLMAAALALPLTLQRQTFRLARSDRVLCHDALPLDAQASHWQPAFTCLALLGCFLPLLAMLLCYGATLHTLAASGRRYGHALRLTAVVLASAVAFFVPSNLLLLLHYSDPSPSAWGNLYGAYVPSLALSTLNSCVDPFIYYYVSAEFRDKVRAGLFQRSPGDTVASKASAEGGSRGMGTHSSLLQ
Outline: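 Calcium-flux antagonist readout: compounds preincubated 30 min at room temperature with PAR4-transfected HEK293 cells in HBSS with 10 mM HEPES (0.67% DMSO final), then agonist peptide added. Agonist activity checked on compound addition; cells carry endogenous PAR1.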

PAR4 [2] = biological target: T1, PAR4; assay: Gamma thrombin induced platelet aggregation assay in PRP (PRP assay); format: cell-based
Excerpt: The compounds of the current invention can be tested in vitro for their ability to inhibit platelet aggregation induced by gamma-thrombin as shown in Example C. Gamma-thrombin, a proteolytic product of alpha-thrombin which no longer interacts with PAR1, selectively cleaves and activates PAR4 (Soslau, G. et al., “Unique pathway of thrombin-induced platelet aggregation mediated by glycoprotein Ib”, J. Biol. Chem., 276:21173-21183 (2001)). Platelet aggregation can be monitored in a 96-well microplate aggregation assay format or using standard platelet aggregometer. The aggregation assay can also be employed to test the selectivity of the compound for inhibiting platelet aggregation induced by PAR4 agonist peptides, PAR1 agonist peptide, ADP, or thromboxane analogue U46619.
The platelet rich plasma was isolated by centrifugation at 170 g for 14 minutes.
The ability of the compounds of the current invention to inhibit platelet aggregation induced by gamma-thrombin was tested in a 96-well microplate aggregation assay format. Briefly, PRP or washed platelet suspension (100 μl) was pre-incubated for 5 minutes at room temperature with varying concentrations of compounds. Aggregation was initiated by ˜10-50 nM gamma thrombin (Haematologic Technologies, Essex Junction, Vt.), which was titrated daily to achieve 80% platelet aggregation. Refludan at 1 U/mL (Berlex, Montville, N.J.) was added to the gamma thrombin sample to prevent PAR1 activation induced by residual alpha-thrombin contamination. The plate was then placed into a 37° C. Molecular Devices (Sunnyvale, Calif.) SPECTRAMAX® Plus Plate Reader. […] Data was collected with SOFTMAX® 4.71 software. The plate also included an untreated control sample which served as ODmax, while buffer containing no platelets was the ODmin. Platelet aggregation was determined by subtracting the ODmax from the ODmin for the 100% aggregation value. In experimental samples, the observed transmission was subtracted from the minimum value and then compared to the 100% aggregation value to determine the percentage aggregation. IC50 values are determined using Excel Fit software.
As indicated above, the PRP assay, an in vitro assay, measures the PAR4 antagonist activity of compounds tested as described in Example C.

Compound	IC50 (PAR4 [1])	IC50 (PAR4 [2])
COc1ccc2oc(-c3cn4nc(SC)sc4n3)cc2c1 [Example 16]	369 nM	> 30000 nM
CCOc1nn2cc(-c3nc4ccccc4s3)nc2s1 [Example 27]	1780 nM	> 30000 nM
Brc1nn2cc(-c3cc4ccccc4o3)nc2s1 [Example 68]	55.3 nM	16700 nM
CSc1nn2cc(-c3nc4ccc(OC(C)C)cc4o3)nc2s1 [Example 161]	79.9 nM	> 30000 nM
CSc1nn2cc(-c3nc4c(OC[C@@H]5CCCN5C(=O)[C@H](NC(=O)c5ccccc5)c5ccccc5)cccc4o3)nc2s1 [Example 337, N—((R)-2-((S)-2-(((2-(2-(Methylthio)imidazo[2,1-b][1,3,4]thiadiazol-6-yl)benzo[d]oxazol-4-yl)oxy)methyl)pyrrolidin-1-yl)-2-oxo-1-phenylethyl)benzamide]	401 nM	> 30000 nM
CCc1nn2cc(-c3nc4cc(F)c(F)cc4o3)nc2s1 [Example 38]	66.6 nM	> 30000 nM
CSc1nn2cc(-c3nc4c(OC(C)C)cccc4o3)nc2s1 [Example 159]	28.4 nM	> 30000 nM
COc1nn2cc(-c3cc4c(OCc5cccc(OCc6cccc(C)c6)c5)c(Cc5ccccc5)c(OC)cc4o3)nc2s1 [Example 387]	41.5 nM	2400 nM
COc1nn2cc(-c3cc4c(OCc5cccc(OCc6ccccc6)c5)cc(OC)c(Cl)c4o3)nc2s1 [Example 415, 6-(4-((3-(Benzyloxy)benzyl)oxy)-7-chloro-6-methoxybenzofuran-2-yl)-2-methoxyimidazo[2,1-b][1,3,4]thiadiazole]	513 nM	3270 nM
CSc1nn2cc(-c3nc4c(OCc5cccc(OCc6ccccc6)c5)cccc4o3)nc2s1 [Example 173]	39.4 nM	5280 nM
COc1cc(OCc2cccc(OCc3cccc(OCc4ccccc4)c3)c2)c2cc(-c3cn4nc(OC)sc4n3)oc2c1 [Example 383]	8.68 nM	594 nM
COc1nn2cc(-c3nc4c(C)cccc4o3)nc2s1 [Example 129]	32 nM	> 30000 nM
CCOc1cccc2cc(-c3cn4nc(OC)sc4n3)oc12 [Example 34]	149 nM	> 30000 nM
CCc1nn2cc(-c3nc4ccc(OC)cc4o3)nc2s1 [Example 39]	220 nM	> 30000 nM
COc1ccc(Br)c2cc(-c3cn4nc(SC)sc4n3)oc12 [Example 282]	49.6 nM	5630 nM
COc1cc(OCc2cccc(OCc3cc(Cl)cc(Cl)c3)c2)c2cc(-c3cn4nc(OC)sc4n3)oc2c1 [Example 376]	7.27 nM	677 nM

Now those with a lower IC50 (PAR4 [1]), led by results:

IC50 (PAR4 [1])	IC50 (PAR4 [2])	Compound
6.2 nM	151 nM	COc1cc(OCc2cc(Cl)cc(OCc3ccccc3)c2)c2cc(-c3cn4nc(OC)sc4n3)oc2c1 [Example 402]
5.68 nM	3190 nM	COc1cc(OCc2ccc(F)cc2)c2cc(-c3cn4nc(OC)sc4n3)oc2c1 [Example 303]
5.3 nM	151 nM	COc1cc(OCc2cccc(OCc3c(F)cccc3Cl)c2)c2cc(-c3cn4nc(OC)sc4n3)oc2c1 [Example 370]
5.05 nM	568 nM	COc1cc(OCc2cccc(OCc3cccc(Oc4ccccc4)c3)c2)c2cc(-c3cn4nc(OC)sc4n3)oc2c1 [Example 384]
3.68 nM	616 nM	COc1cc(OCc2cccc(OCc3ccc(OC(F)(F)F)cc3)c2)c2cc(-c3cn4nc(OC)sc4n3)oc2c1 [Example 394]
2.42 nM	38.3 nM	COc1cc(OCc2cccc(OCc3ccccc3C)c2)c2cc(-c3cn4nc(OC)sc4n3)oc2c1 [Example 363]
1.66 nM	109 nM	COc1cc(OCc2cccc(OCc3cc(F)cc(C(F)(F)F)c3)c2)c2cc(-c3cn4nc(OC)sc4n3)oc2c1 [Example 356]
1.44 nM	105 nM	COc1ccc(COc2cccc(COc3cc(OC)cc4oc(-c5cn6nc(OC)sc6n5)cc34)c2)cc1 [Example 392]
0.59 nM	4.95 nM	COc1cc(OCc2cccc(OCc3csc(C)n3)c2)c2cc(-c3cn4nc(OC)sc4n3)oc2c1 [Example 399]
